From patent US20260193285A1, “GRAMINE-PLATINUM (IV) COMPLEX AS WELL AS PREPARATION METHOD THEREFOR AND ANTI-TUMOR USE THEREOF” (TIANJIN MEDICAL UNIVERSITY CANCER INSTITUTE & HOSPITAL, priority 2022, published 2026)
“And” between values parts separate entries of the source, which are not always exact repeats. Identical values can stand only once.

Columns and labels:
4T1-Luc tumor model = experiment: In vivo anti-tumor activity, breast cancer 4T1-Luc tumor model; conditions: for final survival rate: dead includes body weight decrease of more than 20%
Method: Firstly, a 4T1-Luc tumor model was established using Balb/c female mice 4-5 weeks old. After the tumor volume reached […], the mice were randomly divided into four groups, namely Solvent, Cisplatin, Cisplatin+Gramine, and Compound c groups, respectively. The drugs were formulated at a Pt concentration of 2.0 mg/kg, once every 3 days and six times in total, while the body weight and tumor volume of the mice were measured every 2 days. The mice were sacrificed and the organs (heart, liver, spleen, lung, kidney) and tumors thereof were excised. The organs and tumors were used for H&E staining, immunohistochemical staining, and ICP-MS determination of platinum content.

[1] = tested on: Patient-derived xenografts (PDXs) of pancreatic cancer; experiment: In vivo anti-tumor activity, pancreatic cancer PDX model; conditions: for final survival rate: dead includes body weight decrease of more than 20%; for tumor inhibition rate at the treatment endpoint: Pt 3.0 mg/kg once every 3 days, five times
Method: Patient-derived xenografts (PDXs) were used. Fresh tumor tissue from a patient was treated and transplanted subcutaneously into the groin of immunodeficient NOD-SCID IL-2 receptor gamma null (NSG) mice. […] The successfully transplanted tumor was passaged for 3 passages or more in NSG mice to obtain mouse models for experiments. […] The drugs were formulated at a Pt concentration of 3.0 mg/kg, once every 3 days and five times in total, while the body weight and tumor volume of the mice were measured every 3 days. The mice were sacrificed and the organs (heart, liver, spleen, lung, kidney) and tumors thereof were excised. The organs and tumors were used for ICP-MS determination of platinum content.

KPC tumor model = experiment: In vivo anti-tumor activity, pancreatic cancer KPC model; conditions: for final survival rate: dead includes body weight decrease of more than 20%; for tumor inhibition rate at the treatment endpoint: Pt 3.0 mg/kg once every 3 days, five times; for PD-1 level in tumors (flow cytometry): solvent control 15.7%
Method: Firstly, a KPC tumor model was established using C57BL/6 female mice 4-5 weeks old. […] The drugs were formulated at a Pt concentration of 3.0 mg/kg, once every 3 days and five times in total, while the body weight and tumor volume of the mice were measured every 3 days. The mice were sacrificed and the organs (heart, liver, spleen, lung, kidney) and tumors thereof were excised. The tumors were used for flow cytometry to determine the content of immune cells.

[2] = tested on: MDA-MB-231 (human breast cancer cells); experiment: In vitro anti-tumor activity assay (MTT), MDA-MB-231; format: cell-based; conditions: for IC50: 72 hours, MTT, average of multiple measurements
Text: (§1) In this assay, the anti-tumor activity of the synthesized compounds was studied by MTT (3-(4,5-dimethylthiazolyl-2)-2,5-diphenyltetrazolium bromide) method. Eight kinds of cancer cells including MDA-MB-231 (human breast cancer cells), MCF-7 (human breast cancer cells), HCT-116 (human colon cancer cells), HeLa (human cervical cancer cells), FaDu (human pharyngeal squamous carcinoma cells), 5637 (human bladder cancer cells), OVCAR3 (human ovarian cancer cells), HCCC9810 (human liver cancer cells) and one normal human cell line LO2 (human liver cells) were used in this assay to perform experimental research on cytotoxicity. All cell lines were cultured in an incubator with 5% CO2 and saturated humidity at 37° C. The specific experimental steps were as follows:
(§2) The cells in logarithmic growth phase were collected, counted, adjusted to a cell concentration of 3× 10^4 cells/mL, and then seeded into a 96-well plate at 100 μL/well. The blank group (Blank, pure medium group) and the control group (Control, no drug group) were set up. The plate was cultured overnight in a cell culture incubator. After adhesion, the compounds were diluted with culture medium and added to the first column of administration wells at a desired concentration for these wells, followed by the 2-fold serial dilution and administration in subsequent wells, and pipetted gently to mix well. After incubation for 72 hours, 10 μL of MTT solution (5 mg/mL) was added to each well. After cultivation in the incubator for another 4 hours, the supernatant was removed, and DMSO was added at 100 μL/well. After shaking thoroughly, the OD value was measured using a microplate-reader at […]. Three independently repeated experiments were carried out to ensure the reliability of the experimental results.

[3] = tested on: MCF-7 (human breast cancer cells); experiment: In vitro anti-tumor activity assay (MTT), MCF-7; format: cell-based; conditions: average of multiple measurements
Text: as §1, §2

[4] = tested on: HCT-116 (human colon cancer cells); experiment: In vitro anti-tumor activity assay (MTT), HCT-116; format: cell-based; conditions: average of multiple measurements
Text: as §1, §2

[5] = tested on: HeLa (human cervical cancer cells); experiment: In vitro anti-tumor activity assay (MTT), HeLa; format: cell-based; conditions: 72 hours, average of multiple measurements
Text: as §1, §2

LO2 (human liver cells) = experiment: Cytotoxicity (MTT) on normal cell line LO2; format: cell-based; conditions: 72 hours
Text: as §1, §2

[6] = tested on: pancreatic cancer cells SU86.86; experiment: CCK-8 inhibition of pancreatic cancer cells, SU86.86; format: cell-based; conditions: CCK-8, 72 hours
Method: (§3) In this experiment, CCK-8 was used to study the proliferation activity of pancreatic cancer cells SU86.86, MIA-PaCa2, SW1990, CFPAC-1 and BxPC-3. All cell lines were cultured in an incubator with 5% CO2 and saturated humidity at 37° C. The experimental steps were as follows:
(§4) The cells in logarithmic growth phase were collected, counted, adjusted to a cell concentration of 3×10^4 cells/mL, and then seeded into a 96-well plate at 100 μL/well. The blank group (Blank, medium group without cells) and the control group (Control, medium group with cells) were set up. After the cells in the culture plate were cultured overnight in the incubator with saturated humidity at 37° C. and adhered, the compounds were diluted with culture medium and added to the first column of administration wells at a desired concentration for these wells, followed by the 2-fold serial dilution and administration at 18 concentrations in total, and pipetted gently to mix well. After incubation for 72 hours, 10 μL of CCK8 solution (5 mg/mL) was added to each well. After cultivation in the incubator for another 4 hours, the OD value was measured using a microplate-reader at λ=450 nm.

[7] = tested on: pancreatic cancer cells MIA-PaCa2; experiment: CCK-8 inhibition of pancreatic cancer cells, MIA-PaCa2; format: cell-based; conditions: CCK-8, 72 hours
Method: as §3, §4

[8] = tested on: pancreatic cancer cells SW1990; experiment: CCK-8 inhibition of pancreatic cancer cells, SW1990; format: cell-based; conditions: CCK-8, 72 hours
Method: as §3, §4

[9] = tested on: pancreatic cancer cells CFPAC-1; experiment: CCK-8 inhibition of pancreatic cancer cells, CFPAC-1; format: cell-based; conditions: CCK-8, 72 hours
Method: as §3, §4

[10] = tested on: pancreatic cancer cells BxPC-3; experiment: CCK-8 inhibition of pancreatic cancer cells, BxPC-3; format: cell-based; conditions: CCK-8, 72 hours
Method: as §3, §4

[11] = tested on: pancreatic cancer organoids from patients; experiment: In vitro organoid activity assay, pancreatic cancer; format: cell-based, human; conditions: 96 hours, CellTiter-Glo 3D, one value per case; read-out: IC50 in organoid models of 2 cases of pancreatic cancer
Method: (§5) The experimental steps were as follows:
(§6) Tumor samples were obtained from the patients undergoing surgery for breast cancer and pancreatic cancer, and digested with tumor dissociation kits. Tumor suspensions were collected and centrifuged to obtain tumor organoids. Complete culture medium for breast cancer or pancreatic cancer organoids was added to the organoid models which were cultured and passaged under the culture conditions of 5% CO2 and saturated humidity at 37° C. The organoids in logarithmic growth phase were collected, counted, resuspended in Matrigel at an organoid concentration of 5×10^4 cells/mL, and then seeded into a 96-well plate at 20 μL/well, followed by further addition of 80 μL of complete medium. The blank group (Blank, medium group without organoids) and the control group (Control, medium group with organoids) were set up. After the organoids were cultured overnight in an incubator with 5% CO2 at 37° C. and adhered, 200 μL of the culture medium containing the drug at a concentration of 20 μM was added to the first administration well, followed by the 2-fold serial dilution and administration, and pipetted gently to mix well. After incubation for 96 hours, representative photos were taken for each well using an inverted microscope, and 10 μL of CellTiter-Glo 3D Reagent (Promega) solution was added to each well to detect the organoid viability.

[12] = tested on: FaDu (human pharyngeal squamous carcinoma cells); experiment: In vitro anti-tumor activity assay (MTT), FaDu; format: cell-based; conditions: 72 hours, average of multiple measurements
Text: as §1
(§7) The cells in logarithmic growth phase were collected, counted, adjusted to a cell concentration of 3× 10^4 cells/mL, and then seeded into a 96-well plate at 100 μL/well. The blank group (Blank, pure medium group) and the control group (Control, no drug group) were set up. The plate was cultured overnight in a cell culture incubator. […] After shaking thoroughly, the OD value was measured using a microplate-reader at 2=570 nm. […]

[13] = tested on: 5637 (human bladder cancer cells); experiment: In vitro anti-tumor activity assay (MTT), 5637; format: cell-based; conditions: 72 hours, average of multiple measurements
Text: as §1, §7

[14] = tested on: OVCAR3 (human ovarian cancer cells); experiment: In vitro anti-tumor activity assay (MTT), OVCAR3; format: cell-based; conditions: 72 hours, average of multiple measurements, read-out: IC50 OVCRA3
Text: as §1, §7

[15] = tested on: HCCC9810 (human liver cancer cells); experiment: In vitro anti-tumor activity assay (MTT), HCCC9810; format: cell-based; conditions: 72 hours, average of multiple measurements, read-out: IC50 HCCC 9810
Text: as §1, §7

[16] = tested on: breast cancer organoids from patients; experiment: In vitro organoid activity assay, breast cancer; format: cell-based, human; conditions: 96 hours, CellTiter-Glo 3D, one value per case; read-out: IC50 in organoid models of 2 cases of breast cancer
Method: as §5, §6

[17] = 4T1-Luc, Pt 2.0 mg/kg once every 3 days, six times
[18] = pancreatic cancer PDX, Pt 3.0 mg/kg
[19] = pancreatic cancer KPC, Pt 3.0 mg/kg

## CCCCCCCCCCCCNC(=O)[O][Pt]([NH2])([NH2])([Cl])([Cl])[O]C(=O)CCC(=O)n1cc(CN(C)C)c2ccccc21 [Compound c]
4T1-Luc tumor model; 4T1-Luc, Pt 2.0 mg/kg
  H&E staining: damage to tumor tissues: severe damage to tumor tissues
  immunohistochemical staining of mouse spleens (CD4+, CD8+, Foxp3 Treg cells): increasing the number of CD4+ and CD8+ cells, while decreasing the number of Treg cells
  final survival rate: 100%
4T1-Luc tumor model; [17]
  tumor growth (tumor volume, tumor weight): significantly inhibited tumor growth
4T1-Luc tumor model; mouse, in vivo
  platinum accumulation in tissues (ICP-MS): significantly decreased the accumulation in the kidney and spleen
[1]; mouse, in vivo
  body weight change of mice: weight recovery and stability from Day 9 post-treatment
  platinum accumulation in tissues (ICP-MS): significantly decreased the accumulation in the kidney and spleen
[1]; [18]
  final survival rate: 100%
KPC tumor model; mouse, in vivo
  body weight change of mice: substantially stable body weight
KPC tumor model; [19]
  final survival rate: 100%

## CN(C)Cc1c[nH]c2ccccc12 [GM, gramine]
[2]; Homo sapiens, MDA-MB-231
  IC50: > 100 µM
[3]; Homo sapiens, MCF7, 72 hours
  IC50: > 100 µM
[4]; Homo sapiens, HCT-116, 72 hours
  IC50: > 100 µM
[5]; Homo sapiens, HeLa
  IC50: > 100 µM
LO2 (human liver cells)
  IC50: > 100 µM

## O=C1[O][Pt]2([NH][C@@H]3CCCC[C@H]3[NH]2)[O]C1=O [OXP, oxaliplatin]
[2]
  IC50: 28.2 µM
[3]; 72 hours
  IC50: 17.5 µM
[4]; 72 hours
  IC50: 9.98 µM
[5]
  IC50: 14.6 µM
LO2 (human liver cells)
  IC50: 27.2 µM
[6]
  IC50: 8.02 µM
[7]
  IC50: 2 µM
[8]
  IC50: 2.8 µM
[9]
  IC50: 200 µM
[10]
  IC50: 1.37 µM
[11]
  IC50: 12.7 µM and > 20 µM
[1]; [18]
  body weight change of mice: significant decline all the time
  final survival rate: 60%
[1]; pancreatic cancer PDX
  tumor inhibition rate at the treatment endpoint: 68.82%
KPC tumor model; pancreatic cancer KPC
  tumor inhibition rate at the treatment endpoint: 64.76%
KPC tumor model; [19]
  PD-1 level in tumors (flow cytometry): 21.0%

## cisplatin [CDDP]
[2]
  IC50: 15.8 µM
[2]; tumor cell line MDA-MB-231 versus normal cell line LO2
  selectivity index IC50 (LO2)/IC50 (MDA-MB-231): 0.25
[3]; 72 hours
  IC50: 5.9 µM
[4]; 72 hours
  IC50: 8.79 µM
[5]
  IC50: 4.94 µM
[12]
  IC50: 1.57 µM
[13]
  IC50: 1.35 µM
[14]
  IC50: 1.93 µM
[15]
  IC50: 5.55 µM
LO2 (human liver cells)
  IC50: 3.99 µM
4T1-Luc tumor model; 4T1-Luc, Pt 2.0 mg/kg
  H&E staining: damage to mouse organs: severe damage to the spleen, kidney, and liver
  H&E staining: damage to tumor tissues: severe damage to tumor tissues
  final survival rate: 16.67%
4T1-Luc tumor model; [17]
  body weight change of mice: significant decline
[6]
  IC50: 127 µM
[7]
  IC50: 500 µM
[8]
  IC50: 500 µM
[9]
  IC50: 603 µM
[10]
  IC50: 420 µM
[16]
  IC50: > 20 µM
[1]; [18]
  body weight change of mice: significant decline all the time
  final survival rate: 40%
[1]; pancreatic cancer PDX
  tumor inhibition rate at the treatment endpoint: 32.68%
KPC tumor model; [19]
  body weight change of mice: more significant decline
  final survival rate: all died finally
  PD-1 level in tumors (flow cytometry): 24.3%
KPC tumor model; pancreatic cancer KPC
  tumor inhibition rate at the treatment endpoint: 55.67%
